pIC50: −log10 of the molar value.
Experiments:
[1] = biological target: T1, Cell division cycle 7-related protein kinase (Homo sapiens, UniProt O00311); experiment: Inhibition of N-terminus Myc-tagged human CDC7 expressed in Escherichia coli by chemiluminescence assay in presence of ATP
[2] = biological target: Casein kinase II alpha/beta (Homo sapiens, UniProt P68400); experiment: Inhibition of human tertrameric CK2alphabeta holoenzyme using casein as substrate after 1 to 2 hrs by chemiluminescence assay in presence of 2 uM ATP; assay type: protein-complex assay
[3] = biological target: Serine/threonine-protein kinase pim-1 (Homo sapiens, UniProt P11309); experiment: Inhibition of N-terminus His-tagged human PIM1 expressed in Escherichia coli using AKRRRLSA as substrate after 1 to 2 hrs by chemiluminescence assay
[4] = biological target: T1, Cell division cycle 7-related protein kinase; experiment: Inhibition of CDC7 in human MDA-MB-231T cells assessed as inhibition of MCM2 phosphorylation at Ser53 after 4 hrs; assay type: cell-based
[5] = Plasma concentration in mouse at 100 mg/kg, po measured after 1 hr; assay type: ADME, organism-based; set-up: dose 100 mg/kg, route oral
[6] = Plasma concentration in mouse at 100 mg/kg, po measured after 4 hrs; assay type: ADME, organism-based; set-up: dose 100 mg/kg, route oral

T1 sequence (O00311 whole entry): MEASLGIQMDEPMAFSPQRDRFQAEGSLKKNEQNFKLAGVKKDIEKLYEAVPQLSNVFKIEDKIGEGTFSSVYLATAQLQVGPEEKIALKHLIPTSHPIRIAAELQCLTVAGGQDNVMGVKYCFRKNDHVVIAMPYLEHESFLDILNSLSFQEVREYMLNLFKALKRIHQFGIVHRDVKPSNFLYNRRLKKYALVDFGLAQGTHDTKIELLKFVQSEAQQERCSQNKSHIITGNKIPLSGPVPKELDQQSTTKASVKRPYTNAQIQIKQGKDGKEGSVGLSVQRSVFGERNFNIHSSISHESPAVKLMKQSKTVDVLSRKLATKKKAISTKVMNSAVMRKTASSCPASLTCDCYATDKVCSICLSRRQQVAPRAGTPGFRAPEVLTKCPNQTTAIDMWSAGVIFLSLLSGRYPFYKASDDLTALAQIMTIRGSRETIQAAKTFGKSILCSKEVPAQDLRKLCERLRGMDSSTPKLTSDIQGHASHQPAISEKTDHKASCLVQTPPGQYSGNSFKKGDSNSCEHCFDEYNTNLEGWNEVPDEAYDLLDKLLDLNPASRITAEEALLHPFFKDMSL
Sequence of Casein kinase II alpha/beta (P67870 whole entry): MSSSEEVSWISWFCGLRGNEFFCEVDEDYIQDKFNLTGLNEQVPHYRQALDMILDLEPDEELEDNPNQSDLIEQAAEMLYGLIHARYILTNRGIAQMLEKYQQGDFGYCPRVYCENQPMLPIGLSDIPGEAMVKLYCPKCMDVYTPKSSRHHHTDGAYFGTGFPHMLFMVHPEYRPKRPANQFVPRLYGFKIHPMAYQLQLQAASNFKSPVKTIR
Sequence of Casein kinase II alpha/beta (P68400 whole entry): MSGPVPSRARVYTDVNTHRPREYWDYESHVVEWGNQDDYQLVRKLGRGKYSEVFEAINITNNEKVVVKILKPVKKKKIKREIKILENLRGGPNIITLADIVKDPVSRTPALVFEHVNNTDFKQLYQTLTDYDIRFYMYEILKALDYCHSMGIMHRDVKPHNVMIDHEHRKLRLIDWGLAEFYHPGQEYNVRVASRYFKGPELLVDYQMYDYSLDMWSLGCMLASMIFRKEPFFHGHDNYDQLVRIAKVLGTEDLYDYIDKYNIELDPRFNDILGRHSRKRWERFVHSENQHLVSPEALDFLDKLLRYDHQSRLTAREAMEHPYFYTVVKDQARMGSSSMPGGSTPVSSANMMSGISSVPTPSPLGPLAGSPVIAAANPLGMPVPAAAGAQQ
Sequence of Serine/threonine-protein kinase pim-1 (P11309 whole entry): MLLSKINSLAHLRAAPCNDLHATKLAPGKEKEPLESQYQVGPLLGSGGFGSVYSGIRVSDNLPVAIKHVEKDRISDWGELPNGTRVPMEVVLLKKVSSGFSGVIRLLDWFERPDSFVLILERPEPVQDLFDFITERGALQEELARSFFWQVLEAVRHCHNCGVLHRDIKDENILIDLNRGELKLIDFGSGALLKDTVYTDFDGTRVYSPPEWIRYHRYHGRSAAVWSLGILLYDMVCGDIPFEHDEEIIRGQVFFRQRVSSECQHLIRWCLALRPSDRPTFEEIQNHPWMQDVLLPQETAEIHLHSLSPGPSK

pIC50 [1] | pIC50 [2] | pIC50 [3] | pIC50 [4] | concentration at 1 h [5] [µM] | concentration at 4 h [6] [µM] | Structure (SMILES)
7.15 | 5.82 | 6.98 | 5.34 |  |  | O=c1[nH]c([C@H]2CCCN2)nc2c1oc1ccc(Br)cc12
4.85 |  |  |  |  |  | O=c1[nH]c(CN2CC[C@H](O)C2)nc2c1oc1ccc3c(c12)OCO3
 |  |  |  | 101 | 49 | O=c1[nH]c(CN2CC[C@H](O)C2)nc2c1oc1ccc(Br)cc12
8.21 | 7.30 | 7.66 | 5.84 |  |  | O=c1[nH]c(C2CCNCC2)nc2c1oc1ccc(Br)cc12
8.11 | 7.37 | 7.74 | 5.60 |  |  | O=c1[nH]c(C2CNC2)nc2c1oc1ccc(Br)cc12
5.70 | 5.82 |  |  |  |  | O=c1[nH]cnc2c1oc1ccc(Br)cc12

Source: ChEMBL document CHEMBL2029277, “Discovery of XL413, a potent and selective CDC7 inhibitor” (Bioorg Med Chem Lett, 2012)
